Consider 2 compounds from patent US20050192245A1, “Medicinal composition for treating arteriosclerosis” (SANKYO COMPANY, LIMITED, priority 2002, published 2005).

In this test the test system is atherogenic lesions of the right femoral artery (arteriosclerosis). Nature of the test: Atherogenic lesions in cholesterol diet-loaded rabbits with Nylon thread-induced chronic endothelial damage (right femoral artery). As to conditions: oral, 8 weeks. The test is classed as in vivo, male New Zealand White rabbits. How it is done: A test was conducted in which male New Zealand White rabbits (body weights: 1.0 to 1.5 kg) were loaded for 10 weeks with a cholesterol diet (0.5% cholesterol, 3% peanut oil and 3% coconut oil) in the amounts indicated below. The animals were fed 40 g for the first two weeks, 50 g for the next four weeks, and 60 g for the final four weeks. Two weeks after cholesterol diet loading, a Nylon thread was aseptically inserted from the right femoral artery to the vicinity of the diaphragm to induce chronic endothelial damage in the abdominal aorta and right femoral artery. The Nylon thread was immobilized for 8 weeks at the insertion site. Following surgery to insert the Nylon thread, the animals were grouped so that the average values of serum total cholesterol, triglycerides, platelet aggregation and body weight of each group were nearly equal, followed by oral administration of the ADP receptor antagonist and the ACAT inhibitor either alone or combined. After necrotomy of the animals 8 weeks after administration, the right femoral arteries were excised and the ratio of the surface area covered by atherogenic lesions was calculated. After exposing the right femoral artery (by 1 cm from the branch of the iliac artery), it was photographed with a digital camera (COOLPX990, Nikon) followed by measurement of the surface area of the lumen and the surface area covered by atherogenic lesions using an image analyzer, and calculation of the ratio of the surface area covered by atherogenic lesions relative to the surface area of the aorta lumen as a percentage. In addition, a section 1 cm from the branch of the iliac artery on the side of the femoral artery was cut out and after fixing in methanol-carnoy solution, was embedded in a paraffin block. After slicing into thin sections, the sections were immunostained using Elastica-Masson stain and anti-human α-actin antibody (1A4) followed by calculating the degree of medial intimal thickness and the smooth muscle cell occupancy rate using an image analyzer. In the table, Compound A represent 2-acetoxy-5-(α-cyclopropylcarbonyl-2-fluorobenzyl)-4,5,6,7-tetrahydrothieno[3,2-c]pyridine, and Compound B represents sulfate of N-(1-octyl-5-carboxymethyl-4,6-dimethylindolin-7-yl)-2,2-dimethylpropanamide.

As for `CC(=O)Oc1cc2c(s1)CCN(C(C(=O)C1CC1)c1ccccc1F)C2` (stereo not drawn) [Compound A, 2-acetoxy-5-(α-cyclopropylcarbonyl-2-fluorobenzyl)-4,5,6,7-tetrahydrothieno[3,2-c]pyridine], where the note is “Compound A 1 mg/kg”, the “Medial intimal thickness (%)” value turned out to be 275.4 ± 153.4% and the “Ratio of lesion surface area (%)” value worked out at 47.2 ± 14.2%. Further, the Smooth muscle cell occupancy rate in lesion at 1 mg/kg (Oryctolagus cuniculus, 1344 h, Compound A 1 mg/kg) amounted to 5.5 ± 1.5%.
Regarding `CCCCCCCCN1CCc2c(C)c(CC(=O)O)c(C)c(NC(=O)C(C)(C)C)c21.O=S(=O)(O)O` [Compound B, sulfate of N-(1-octyl-5-carboxymethyl-4,6-dimethylindolin-7-yl)-2,2-dimethylpropanamide], for the setting “Compound B 3 mg/kg”, the “Medial intimal thickness (%)” value came out at 60.0 ± 34.2 %, the “Ratio of lesion surface area (%)” value came to 40.6 ± 19.8 % and the “Smooth muscle cell occupancy rate (%)” value is recorded as 25.6 ± 14.8 %.
